Results published in paper PMC5156807, “Stabilized Polymer Micelles for the Development of IT-147, an Epothilone D Drug-Loaded Formulation” (Journal of Drug Delivery, 2016).
Read-outs that look alike come from different tables or passages of the source.

Key:
[1] = Stability of drug substance in pilot formulations (mass spectrometry); assay type: physicochemical
Text: Epothilones B and D were selected for encapsulation using triblock copolymers. […] This was not completely surprising as stability of epothilone B both in vitro and in vivo has been addressed in the literature. Epothilone D, the alkene derivative of epothilone B (also known as desoxy-epothilone B), was selected as the preferred drug substance for encapsulation due to increased stability in aqueous environments and pH fluctuations. A small library of triblock copolymers was used to conduct pilot formulations of epothilone D drug-loaded micelles, with the ultimate goal to select IT-147, the lead for development of an epothilone D encapsulated polymer micelle formulation. Five of the polymers chosen for the library contained stabilizing blocks comprised of hydroxamic acid functionalized poly(glutamic acid), and five of the polymers contained poly(cysteine) amino acid moieties as stabilizing blocks (Figure 2, Table 1). All polymers contained a 12 kDa PEG and a mixture of hydrophobic amino acids with D and L isomers in the core block. Pilot formulations were characterized by determining formulation efficiency, epothilone D drug loading (% w/w), average particle diameter, and retention of epothilone D following dialysis above and below the critical micelle concentration (Table 1).

[2] = intraperitoneal bolus, mouse tumor models; cited from earlier work
[3] = Dialysis stability / pH-dependent release assay; assay type: physicochemical; conditions: 20 mg/mL, 3500 MWC, 10 mM phosphate buffer, 6 hours, room temperature; epothilone D retained
Method: Retention of the epothilone drug substance within the micelle formulation and the release profile of the drug substance over time, concentration, and pH were investigated using dialysis. Formulations were reconstituted at concentrations of 20 mg/mL and 0.2 mg/mL and placed in dialysis tubing with 3500 MWC pore size, which allows for retention of the micelles within the bag and release of the free drug from the bag into the reservoir. A volume of 3 mL of reconstituted formulation was placed into dialysis bags and then placed in a 300 mL reservoir containing 10 mM phosphate buffer and stirred for 6 hours at room temperature. HPLC assay for epothilone concentration of the formulation inside the bag was done before and after dialysis to determine the percentage of epothilone retained inside the dialysis bag over 6 hours. pH-dependent release was performed using 10 mM phosphate buffer at pH 3, 4, 5, 6, 7, 7.4, and 8 in the reservoirs during dialysis.

[4] = Plasma pharmacokinetic screening of pilot formulations in cannulated rat model; assay type: in vivo, Sprague-Dawley rats; conditions: rat plasma epothilone D, 10 mg/kg fast bolus jugular vein catheter
Method: The lead hydroxamic acid and cysteine containing formulations were compared to free epothilone D using a cannulated rat model by administering a 10 mg/kg dose by fast bolus to the jugular vein catheter. Female, Sprague-Dawley rats surgically modified with jugular vein catheters exteriorized posteriorly were purchased from Harlan Labs. Catheters were flushed and maintained with heparinized saline to ensure patency over the study period. The catheter port was used for both test article administration and blood collection. IT-147 pharmacokinetics at 20, 30, and 40 mg/kg were compared to epothilone D free drug at 20 mg/kg in the cannulated rat model. IT-147 was reconstituted in saline, while epothilone D free drug was reconstituted in cremaphor : ethanol : saline at 1 : 1 : 4 ratio. All in vivo studies were conducted under Institutional Guidelines. The Institutional Animal Care and Use Committee (IACUC), at the University of South Florida (USF), approved all rat in vivo study protocols. Animals were maintained and evaluated under pathogen-free conditions in accordance with USF College of Medicine IACUC standards of care. Approximately 300 μL of blood was collected into K2EDTA tubes containing PMSF (final concentration 2.5 mM) at time points of 1, 5, 15, and 60 minutes after test article administration. Samples were centrifuged at 2000 RPM for 5 minutes to isolate plasma. Plasma was aliquoted into microcentrifuge tubes and frozen at −20°C until processed for HPLC/UV analysis. […]
Stability of polymer micelles to dilution is one of the most important physiochemical characteristics for a formulation to be successful in vivo. […] The top two candidates from the pilot epothilone D formulations were evaluated, along with epothilone D free drug, using a cannulated rat model for pharmacokinetics. Selection of the lead epothilone D formulation, termed IT-147, was determined from the exposure of epothilone D to the plasma compartment by calculating the area under the concentration versus time curve (AUC) and maximum concentration (C max). […]

[5] = Pilot toxicokinetic dose range-finding study in cannulated rat model; assay type: in vivo, Sprague-Dawley rats; conditions: for Dose limiting Toxicities / average weight loss: rat, 20 mg/kg; for Dose limiting Toxicities: w.l. = weight loss; for average weight loss: four days
Method: The lead hydroxamic acid and cysteine containing formulations were compared to free epothilone D using a cannulated rat model by administering a 10 mg/kg dose by fast bolus to the jugular vein catheter. Female, Sprague-Dawley rats surgically modified with jugular vein catheters exteriorized posteriorly were purchased from Harlan Labs. Catheters were flushed and maintained with heparinized saline to ensure patency over the study period. The catheter port was used for both test article administration and blood collection. IT-147 pharmacokinetics at 20, 30, and 40 mg/kg were compared to epothilone D free drug at 20 mg/kg in the cannulated rat model. IT-147 was reconstituted in saline, while epothilone D free drug was reconstituted in cremaphor : ethanol : saline at 1 : 1 : 4 ratio. All in vivo studies were conducted under Institutional Guidelines. The Institutional Animal Care and Use Committee (IACUC), at the University of South Florida (USF), approved all rat in vivo study protocols. Animals were maintained and evaluated under pathogen-free conditions in accordance with USF College of Medicine IACUC standards of care. Approximately 300 μL of blood was collected into K2EDTA tubes containing PMSF (final concentration 2.5 mM) at time points of 1, 5, 15, and 60 minutes after test article administration. Samples were centrifuged at 2000 RPM for 5 minutes to isolate plasma. Plasma was aliquoted into microcentrifuge tubes and frozen at −20°C until processed for HPLC/UV analysis. The following bioanalytical method is a modification of the procedure originally developed by Yuan et al.. Bioanalytical sample preparation was performed by liquid : liquid extraction. 50 μL of plasma sample was added to 600 μL of n-butyl chloride and vortexed for 10 minutes. Samples were centrifuged at 10,000 RPM for 10 minutes and the organic supernatant was aliquoted into microcentrifuge tubes. The n-butyl chloride supernatant was evaporated to dryness using a turbovap with nitrogen flow at room temperature, and 75 μL of a 40% acetonitrile in water solution was added to each tube. Samples were then vortexed for 5 minutes, aliquoted into HPLC vials, and processed using HPLC methodology as described in Section 2.3. Blank rat plasma containing PMSF was used to spike in epothilone D for standard curve preparation and processed as described for the plasma samples to determine concentration of epothilone D isolated from the samples collected from the cannulated rats. Noncompartmental analysis of the pharmacokinetic data was done using Phoenix WinNonlin version 6.3.
A pilot dose range-finding toxicokinetic study in a cannulated rat model was performed to support future full scale toxicokinetic studies of IT-147. Doses of IT-147 at 20, 30 and 40 mg/kg were compared to epothilone D free drug at 20 mg/kg (Table 3, Figure 7) followed by monitoring of animal weight change, gross signs of clinical toxicity, and limited plasma sampling for pharmacokinetic analysis (Table 4). IT-147 was reconstituted in saline while epothilone D free drug was administered in a cremaphor : ethanol : saline mixture. Test articles were given by fast bolus to the rat jugular vein, and blood was collected at time points of 1 minute, 5 minutes, 15 minutes, 1 hour, 2 hours, 4 hours, and 6 hours. […] Samples collected after the 1-hour time point were below the limit of quantitation for analysis. […] It was concluded that 20 mg/kg epothilone D free drug was above the maximum tolerated dose for these animals. […] Animals were monitored for one week following test article administration. […] Animals were monitored for four days after test article administration and were euthanized on the fourth day due to welfare concerns. […] It was concluded that 40 mg/kg epothilone D from IT-147 was above the maximum tolerated dose for these animals.

[6] = female, Sprague-Dawley, iv, rat plasma, 20 mg/kg epothilone D equivalent, fast bolus jugular vein

Row | SMILES | stability of the drug substance (epoxide ring) under formulation conditions [1] | LD50 [2] | maximum tolerated dose [2] | Dialysis > CMC (% remaining) [3] | concentration at 60 min ([4]; female, Sprague-Dawley, intravenous, 60 minutes, read-out: Clast) | Cmax ([4]; female, Sprague-Dawley, intravenous, at 1 minute) | AUC(0-1 h) [4] | maximum tolerated dose ([5]; cannulated rat, single fast bolus, epothilone D equivalent, listed as epothilone D free drug) | Cmax [5, 6] | clearance [5, 6] | half-life ([5]; female, Sprague-Dawley, iv, terminal, rat plasma, 20 mg/kg epothilone D equivalent, fast bolus jugular vein) | AUC(0–6 h) ([5]; rat plasma, 20 mg/kg epothilone D equivalent, fast bolus jugular vein) | Dose limiting Toxicities ([5]; 20 mg/kg epothilone D equivalent, listed as Epo D) | Dose limiting Toxicities ([5]; 20 mg/kg epothilone D equivalent, listed as Epothilone D free drug) | Dose limiting Toxicities ([5]; 20 mg/kg epothilone D equivalent, listed as epothilone D free drug) | average weight loss ([5]; listed as Epothilone D free drug) | average weight loss ([5]; listed as epothilone D free drug)
1 | C/C(=C\c1csc(C)n1)[C@@H]1C[C@@H]2O[C@]2(C)CCC[C@H](C)[C@H](O)[C@@H](C)C(=O)C(C)(C)[C@@H](O)CC(=O)O1 [epothilone B] | unstable to all experimental formulation conditions | 0.6 mg/kg | 0.3 mg/kg | – | – | – | – | – | – | – | – | – | – | – | – | – | –
2 | C/C1=C/C[C@@H](/C(C)=C/c2csc(C)n2)OC(=O)C[C@H](O)C(C)(C)C(=O)[C@H](C)[C@@H](O)[C@@H](C)CCC1 [epothilone D] | – | – | 25 mg/kg | 15% | 1600 ± 800 ng/mL | 19700 ± 4100 ng/mL | 5.2 h∗µg/mL | < 20 mg/kg | 32200 ng/mL | 40.2 mL/min/kg | 18 min | 8.3 h∗µg/mL | >10% w.l. lethargy impaired gait orbital-bleeding | lethargy, impaired gait, orbital bleeding, porphyrin accumulation around the face, and disheveled fur | lethargy, gait impairment, and retro-orbital bleeding | 12% | greater than 10%
